In patent publication US20120282242A1 (priority 2002, published 2012):
Where “and” joins values, the source holds several entries; their conditions need not be identical. Identical values can stand only once. Entries after “also recorded” stand apart in the source; their conditions may differ.

What was measured:
[1] = tested on: eye muscles; details: in vivo
[2] = tested on: glaucoma patients; details: human, in vivo
[3] = tested on: glaucoma patients; details: human, in vivo; remark: listed apart in the source
[4] = tested on: eyelid muscles (Riolan's muscle, orbicularis muscle); design: species or system human; details: in vivo
[5] = tested on: glaucoma patients; design: species or system human; details: in vivo
[6] = tested on: primary cultures of spinal cord neurons; details: cited from earlier work
[7] = tested on: brain synaptosome preparations; details: cited from earlier work

## CCN(CC)CC(=O)Nc1c(C)cccc1C [lidocaine, Diethylaminoacet-2,6-xylidide]
[1]; iv
  modulation of muscle action: promotes the desired effect, but the effect is short lived

## COc1cccc2c1C(=O)c1c(O)c3c(c(O)c1C2=O)C[C@@](O)(C(=O)CO)C[C@@H]3O[C@H]1C[C@H](N)[C@H](O)[C@H](C)O1 [doxorubicin]
[1]
  effect on eye muscles: reduce the strength of eye muscles
  reducing and modulating muscle volume and muscle contraction: have proven to be effective

## COc1ccc(CCN(C)CCCC(C#N)(c2ccc(OC)c(OC)c2)C(C)C)cc1OC (stereo not drawn) [verapamil]
[1]
  therapeutic effect: causes desired therapeutic effect

## botulinum toxin
[2]
  12 week period average reduction of baseline eye pressure: 16%
  % IOP reduction: 16.6% and 11.5%
  % reduction IOP: 12.5% and 10% and 7%
  IOP post Rx during first 3 Rx: 26 and 24 and 23
  IOP reduction: 10.5% and 14%
  reduction of IOP in the treated eye: no reduction of IOP
[3]
  Outcome: VF progression: no VF progression; also recorded: minimal VF progression
  Outcome: progression of diabetic retinopathy: No progression of diabetic retinopathy
[4]
  baseline eye pressure after injection: A reduction of baseline eye pressure was also noted
  decrease in eye pressure per spike per blink: more than 5 mm Hg
  lower increase in eye pressure during forceful squeezing of the eyelids compared with control: ~50%
  reduction in eye pressure after forceful closure of the eyes: ~35%
  spike in pressure during blinking measured by LMD: 25 mm Hg and 20 mm Hg
[5]
  disturbance of lid function / subjective complaints: did not lead to any apparent disturbance of lid function
[6]
  evoked release of glutamate: inhibits the evoked release of glutamate
[7]
  release of acetylcholine and glutamate: inhibits the release of both neurotransmitters

## NCC1(CC(=O)O)CCCCC1 [Gabapentin]
[1]
  therapeutic effect: achieved therapeutic effect
